Test results reported in PMC10508830 (Antiviral research, 2023).
pIC50: −log10 of the molar value.

Target: NA of A/Alabama/03/2020 A(H1N1)pdm09 (H275Y) (Influenza A virus, UniProt A0A0X9QTS2, H275Y)
Format: biochemical
Conditions: for pIC50: read-out: Mean IC50 ± SD

Substance | pIC50 | IC50 fold-change
oseltamivir carboxylate | 6.64 | –
peramivir | 7.82 | 15.25 ± 2.11 (254) fold
